Patent US9999616B2 (ZENITH EPIGENETICS LTD., priority 2013, dated 2018)
pIC50: −log10 of the molar value.

How the values were obtained:
[1] = test system: c-myc in Human AML MV4-11 cells; test: Inhibition of cMYC expression (mRNA, real-time PCR) in MV4-11 cells; format: cell-based; details: 3 h treatment, cMYC mRNA by real-time PCR
Method: MV4-11 cells (CRL-9591) were plated at a density of 2.5×10^4 cells per well in 96 well U-bottom plates and treated with increasing concentrations of test compound or DMSO (0.1%) in IMDM media containing 10% FBS and penicillin/streptomycin, and incubated for 3 h at 37′C. Triplicate wells were used for each concentration. Cells were pelleted by centrifugation and harvested using the mRNA Catcher PLUS kit according to manufacturer's instructions. The eluted mRNA isolated was then used in a one-step quantitative real-time PCR reaction, using components of the RNA UltraSense™ One-Step Kit (Life Technologies) together with Applied Biosystems TaqMan® primer-probes for cMYC and Cyclophilin. Real-time PCR plates were run on a ViiA™7 real time PCR machine (Applied Biosystems), data was analyzed, normalizing the Ct values for cMYC to an internal control, prior to determining the fold expression of each sample, relative to the control.

Human AML MV-4-11 cells = test: Inhibition of cell proliferation in MV4-11 cells (CellTiter Aqueous One); format: cell-based; details: MV4-11, 72 h
Method: MV4-11 cells (CRL-9591) were plated at a density of 5×10^4 cells per well in 96 well flat bottom plates and treated with increasing concentrations of test compound or DMSO (0.1%) in IMDM media containing 10% FBS and penicillin/streptomycin. Triplicate wells were used for each concentration and a well containing only media was used as a control. Plates were incubated at 37° C., 5% CO2 for 72 h before adding 20 µL of the CellTiter Aqueous One Solution (Promega) to each well and incubated at 37° C., 5% CO2 for an additional 3-4 h. The absorbance was read at 490 nm in a spectrophotometer and the percentage of cell titer relative to DMSO-treated cells was calculated after correcting for background by subtracting the blank well's signal. IC50 values were calculated using the GraphPad Prism software.

hIL-6 mRNA = test: Inhibition of hIL-6 mRNA transcription in LPS-stimulated U937 macrophages; format: cell-based, Human; details: Homo sapiens, U-937, PMA-differentiated U937 cells, 1 h pretreatment, LPS 3 h, read-out: IL-6 activity
Method: Human leukemic monocyte lymphoma U937 cells (CRL-1593.2) were plated at a density of 3.2×10^4 cells per well in a 96-well plate in 100 μL RPMI-1640 containing 10% FBS and penicillin/streptomycin, and differentiated into macrophages for 3 days in 60 ng/mL PMA ([…]) at 37° C. in 5% CO2 prior to the addition of compound. The cells were pretreated for 1 h with increasing concentrations of test compound in 0.1% DMSO prior to stimulation with 1 ug/mL lipopolysaccharide from Escherichia coli. Triplicate wells were used for each concentration. The cells were incubated at 37° C., 5% CO2 for 3 h before the cells were harvested. At time of harvest, media was removed and cells were rinsed in 200 μL PBS. Cells were harvested using the mRNA Catcher PLUS kit according to manufacturer's instructions. The eluted mRNA was then used in a one-step quantitative real-time PCR reaction using components of the RNA UltraSense™ One-Step Kit (Life Technologies) together with Applied Biosystems TaqMan® primer-probes for hIL-6 and Cyclophilin. Real-time PCR plates were run on a ViiA™7 real time PCR machine (Applied Biosystems), data was analyzed, normalizing the Ct values for hlL-6 to an internal control, prior to determining the fold expression of each sample, relative to the control.

[2] = target: Brd4 bromodomain 1 (BRD4(1)) (Homo sapiens, UniProt O60885); test: Inhibition of tetra-acetylated histone H4 binding to Brd4 bromodomain 1, measured by FRET (HTRF); parameters: made in house; host or cells: E. coli BL21(DE3); details: 2 h at room temperature
Outline: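 Inhibition was read as a drop in 665 nm relative to 620 nm HTRF signal after 2 h at room temperature, with IC50 from dose-response curves in duplicate wells. Reactions held 200 nM E. coli-expressed His-tagged bromodomain and 25-50 nM biotinylated tetra-acetylated histone H4 peptide. Buffer was 30 mM HEPES pH 7.4 with KF, CHAPS, BSA and 0.2% DMSO.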

Row | Compound | pIC50 [1] | pIC50 (Human AML MV-4-11 cells) | pIC50 (hIL-6 mRNA) | pIC50 [2]
1 | Cc1noc(C)c1-c1cc(-c2c(C)noc2C)c2nc(N3CCOCC3)[nH]c2c1 [Example Compound 226, 4-(4,6-bis(3,5-dimethylisoxazol-4-yl)-1H-benzo[d]imidazol-2-yl)morpholine] | ≥ 6.52 | ≥ 6.52 | ≥ 6.52 | ≥ 6.52
2 | Cc1ccncc1-c1cc(-c2c(C)noc2C)cc2cn[nH]c12 [Example Compound 119, 3,5-dimethyl-4-(7-(4-methyl-pyridin-3-yl)-1H-indazol-5-yl)isoxazole] | 5.52 to 6.52 | 5.52 to 6.52 | ≥ 6.52 | ≥ 6.52
3 | COc1ncccc1-c1cc(-c2c(C)noc2C)cc2[nH]c(C)nc12 [Example Compound 118, 4-(4-(2-methoxy-pyridin-3-yl)-2-methyl-1H-benzo[d]imidazol-6-yl)-3,5-dimethyl isoxazole] | 5.52 to 6.52 | 5.52 to 6.52 | 5.52 to 6.52 | ≥ 6.52
4 | COc1ccc(C)cc1-c1cc(-c2c(C)noc2C)cc2[nH]cnc12 [Example Compound 51, 4-(4-(2-methoxy-5-methyl-phenyl)-1H-benzo[d]midazol-6-yl)-3,5-dimethyl isoxazole] | 5.52 to 6.52 | 5.52 to 6.52 | 5.52 to 6.52 | ≥ 6.52
5 | Cc1noc(C)c1-c1cc(-c2c(C)noc2C)c2c(cnn2C)c1 [Example Compound 54, 4,4′-(1-methyl-1H-indazole-5,7-diyl)bis(3,5-dimethylisoxazole)] | 5.52 to 6.52 | ≥ 6.52 | 5.52 to 6.52 | ≥ 6.52
6 | Cc1noc(C)c1-c1cc(-c2c(C)noc2C)c2nc(C3CCOCC3)[nH]c2c1 [Example Compound 228, 4,4′-(2-(tetrahydro-2H-pyran-4-yl)-1H-benzo[d]imidazole-4,6-dyl)bis(3,5-dimethylisoxazole)] | 5.52 to 6.52 | 5.52 to 6.52 | 5.52 to 6.52 | ≥ 6.52
7 | Cc1noc(C)c1-c1cc(-c2c(C)nn(C)c2C)c2c(c1)ncn2C [Example Compound 182, 3,5-dimethyl-4-(1-methyl-7-(1,3,5-trimethyl-1H-pyrazol-4-yl)-1H-benzo[d]imidazol-5-yl)isoxazole] | ≥ 6.52 | 5.52 to 6.52 | ≥ 6.52 | ≥ 6.52
8 | Cc1noc(C)c1-c1cc(-c2cccc(C(N)=O)c2C)c2nc(NC3CCOCC3)[nH]c2c1 [Example Compound 207, 3-(6-(3,5-dimethyl-isoxazol-4-yl)-2-((tetrahydro-2H-pyran-4-yl)amino)-1H-benzo[d]imidazol-4-yl)-2-methyl benzamide] | 5.52 to 6.52 | 5.52 to 6.52 | 5.52 to 6.52 | ≥ 6.52
9 | CCOc1ncccc1-c1cc(-c2c(C)noc2C)cc2[nH]c(C)nc12 [Example Compound 109, 4-(4-(2-ethoxy-pyridin-3-yl)-2-methyl-1H-benzo[d]imidazol-6-yl)-3,5-dimethyl isoxazole] | 5.52 to 6.52 | 5.52 to 6.52 | ≥ 6.52 | ≥ 6.52
10 | Cc1ccc(C#N)cc1-c1cc(-c2c(C)noc2C)cc2[nH]c(NC3CCN(C)CC3)nc12 [Example Compound 205, 3-(6-(3,5-dimethyl-isoxazol-4-yl)-2-((1-methyl-piperidin-4-yl)amino)-1H-benzo[d]imidazol-4-yl)-4-methyl benzonitrile] | ≥ 6.52 | 5.52 to 6.52 | 5.52 to 6.52 | ≥ 6.52
11 | Cc1nc2c(-c3sc(C)nc3C)cc(-c3c(C)noc3C)cc2[nH]1 [Example Compound 170, 4-(4-(2,4-dimethyl-thiazol-5-yl)-2-methyl-1H-benzo[d]imidazol-6-yl)-3,5-dimethyl isoxazole] | 5.52 to 6.52 | 5.52 to 6.52 | 5.52 to 6.52 | ≥ 6.52
